Values quoted from earlier work in patent US20200268735A1, “Combination Therapy of Lasmiditan and a CGRP Antagonist for Use in the Treatment of Migraine” (Eli Lilly and Company, priority 2017, published 2020).
Read-outs that look alike come from different tables or passages of the source.

Key:
[1] = SPARTAN, lasmiditan 200 mg, p<0.001
[2] = SAMURAI, lasmiditan 200 mg, p<0.001
[3] = for reduction in mean monthly migraine headache days: placebo 2.3 days

Molecule	proportion of patients headache pain-free at 2 hours post-first dose ([1]; placebo 21.3%)	proportion of patients most bothersome symptom (MBS)-free at 2 hours post-first dose ([1]; placebo 33.5%)	proportion of patients headache pain-free at 2 hours post-first dose ([2]; placebo 15.3%)	proportion of patients most bothersome symptom (MBS)-free at 2 hours post-first dose ([2]; placebo 29.5%)	severity of most treatment-emergent adverse events (after the first dose)	headache pain-free and MBS-free endpoints, other dose groups compared to placebo (lasmiditan 100 mg, 50 mg, both endpoints)	most frequently reported TEAEs after the first dose (≥2% and greater than placebo)	adverse events significantly more frequent versus placebo ([3]; 240 mg group)	all key secondary endpoints versus placebo ([3]; both doses (120 and 240 mg))	adverse events significantly more frequent versus placebo ([3]; both galcanezumab doses)	reduction in mean monthly migraine headache days ([3]; galcanezumab 120 mg once monthly)	reduction in mean monthly migraine headache days ([3]; galcanezumab 240 mg once monthly)	most common treatment-emergent adverse event ([3]; reported at similar rates in all treatment groups)
CN1CCC(C(=O)c2cccc(NC(=O)c3c(F)cc(F)cc3F)n2)CC1 [lasmiditan, 2,4,6-trifluoro-N-[6-(1-methyl-piperidin-4-ylcarbonyl)-pyridin-2-yl]-benzamide]	38.8%	48.7%	32.2%	40.7%	mild-to-moderate	significance was also noted	dizziness, paresthesia, somnolence, fatigue, nausea, and lethargy	–	–	–	–	–	–
galcanezumab: monoclonal antibody targeting calcitonin gene-related peptide (CGRP) (antibody, chains of the INN, looked up, V domains shown) VH: QVQLVQSGAEVKKPGSSVKVSCKASGYTFGNYWMQWVRQAPGQGLEWMGAIYEGTGKTVYIQKFADRVTITADKSTSTAYMELSSLRSEDTAVYYCARLSDYVSGFGYWGQGTTVTVSS VL: DIQMTQSPSSLSASVGDRVTITCRASKDISKYLNWYQQKPGKAPKLLIYYTSGYHSGVPSRFSGSGSGTDFTLTISSLQPEDFATYYCQQGDALPPTFGGGTKVEIK	–	–	–	–	–	–	–	significantly more injection site erythema	superior to placebo	significantly more injection site reactions and injection site pruritus	4.3 days	4.2 days	Injection site pain
